The text below walks through data of PubChem BioAssay (NCI).

Some test systems named below: HS 578T breast; PC-3 prostate; SW-620 colon; RXF 393 renal; SF-295 CNS; K-562 leukemia; DU-145 prostate; OVCAR-4 ovarian; BT-549 breast; UO-31 renal.
Common to all, as to experiment: NCI tumour cell line growth inhibition, 48 h

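These data come from cells grown in 96-well plates and exposed to compound for 48 hours at five concentrations. Definition used: TGI = concentration required for complete inhibition of growth.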

In the case of `COc1cc(/C=C(\C)[N+](=O)[O-])cc(OC)c1`, the TGI in the assay with HS 578T breast was 68.6 µM; in the assay on PC-3 prostate, 34.8 µM; with SW-620 colon it was 9.16 µM; with RXF 393 renal it was 13.1 µM; with SF-295 CNS it was 53.6 µM; in the assay on K-562 leukemia it was 5.52 µM. In addition, the TGI with DU-145 prostate stood at 44.6 µM; in the assay with OVCAR-4 ovarian, 33.5 µM; in the assay with BT-549 breast, 33.6 µM; with UO-31 renal it was 29.1 µM.
For the compound `CC(=O)OC1CCn2c1nc1cc([N+](=O)[O-])c(C)cc12` (centres undefined), the TGI in the assay with HS 578T breast, with PC-3 prostate, in the assay with SW-620 colon, in the assay with RXF 393 renal, in the assay with SF-295 CNS and in the assay on K-562 leukemia was more than 100 µM in each case. For the same compound, the TGI in the assay on DU-145 prostate, in the assay on OVCAR-4 ovarian, in the assay with BT-549 breast and with UO-31 renal was more than 100 µM in each case.
Regarding `CNC(=O)[C@H](Cc1ccccc1)NC(=O)N(CCC#N)CCN(C(=O)N[C@@H](Cc1ccccc1)C(=O)OC)c1ccccc1`, the TGI in the assay with HS 578T breast, in the assay with PC-3 prostate, in the assay with SW-620 colon, in the assay with RXF 393 renal, in the assay on SF-295 CNS and in the assay with K-562 leukemia was more than 100 µM in each case. Moreover, the TGI in the assay on DU-145 prostate, in the assay on OVCAR-4 ovarian, in the assay with BT-549 breast and in the assay with UO-31 renal was more than 100 µM each time.
As for `CCOP1(=O)CC(C)=C(Cl)C(OC)C1` (centres undefined), the TGI was more than 100 µM with HS 578T breast; more than 100 µM in the assay on PC-3 prostate; more than 100 µM in the assay with SW-620 colon; more than 100 µM in the assay with RXF 393 renal; more than 100 µM in the assay on SF-295 CNS; 77.3 µM with K-562 leukemia. Moreover, the TGI in the assay on DU-145 prostate, with OVCAR-4 ovarian and in the assay on BT-549 breast was more than 100 µM throughout.
As to `CC(=O)OCC1OC(OCCCOP(=O)(OCCC#N)OCC2OC(n3cnc4c(N)ncnc43)C(OC(=O)c3ccccc3)C2OC(=O)c2ccccc2)C(OC(C)=O)C(OC(C)=O)C1OC(C)=O` (centres undefined), the TGI with HS 578T breast, in the assay with PC-3 prostate, in the assay on SW-620 colon, in the assay with RXF 393 renal, with SF-295 CNS and in the assay with K-562 leukemia was more than 100 µM each time. Moreover, the TGI in the assay on DU-145 prostate, in the assay with OVCAR-4 ovarian, in the assay on BT-549 breast and with UO-31 renal was more than 100 µM throughout.
Regarding `Nc1nc(Sc2ccc([N+](=O)[O-])c3nonc23)c2[nH]cnc2n1`, the TGI with HS 578T breast turned out to be 62.5 µM; in the assay on PC-3 prostate it was 18 µM; in the assay with SW-620 colon, 2.87 µM; in the assay with RXF 393 renal, 8.32 µM; in the assay on SF-295 CNS, 16.1 µM; in the assay with K-562 leukemia, 2.41 µM. Also, the TGI was 16.2 µM with DU-145 prostate, 15.9 µM with OVCAR-4 ovarian, 18 µM with BT-549 breast and 2.07 µM with UO-31 renal.
On to `S=c1ncc(-c2cncc(-c3cnc(=S)[nH]c3)n2)c[nH]1`, for which the TGI with HS 578T breast, in the assay with PC-3 prostate, in the assay with SW-620 colon, with RXF 393 renal, in the assay with SF-295 CNS and in the assay with K-562 leukemia was more than 100 µM throughout. The TGI in the assay with DU-145 prostate, with OVCAR-4 ovarian, in the assay with BT-549 breast and in the assay on UO-31 renal was more than 100 µM in each case.
In the case of `COC(=O)c1ccccc1CC1Cc2c(C)ccc(C)c2C1=O` (centres undefined), the TGI in the assay with HS 578T breast is more than 100 µM; in the assay on PC-3 prostate, more than 100 µM; with SW-620 colon, more than 100 µM; in the assay on RXF 393 renal it was 51 µM; in the assay with SF-295 CNS, more than 100 µM; in the assay on K-562 leukemia, more than 100 µM. In addition, the TGI in the assay with DU-145 prostate, with OVCAR-4 ovarian, in the assay on BT-549 breast and with UO-31 renal was more than 100 µM in each case.
Turning to `Nc1nc(Cl)c(CO)c(NCC2(CO)CCC2)n1`, the TGI with HS 578T breast, in the assay with PC-3 prostate, in the assay with SW-620 colon, in the assay with RXF 393 renal, in the assay on SF-295 CNS and in the assay on K-562 leukemia was more than 100 µM each time. In addition, the TGI in the assay on DU-145 prostate, in the assay with OVCAR-4 ovarian, with BT-549 breast and in the assay on UO-31 renal was more than 100 µM in each case.
`CN(C)S(=O)(=O)c1ccc2[nH]c(O)c(C3=Nc4ccccc4C3=O)c2c1`: the TGI was 76.9 µM in the assay with HS 578T breast; 90.4 µM with PC-3 prostate; more than 100 µM in the assay on SW-620 colon; 14.2 µM with RXF 393 renal; 26.7 µM with SF-295 CNS; more than 100 µM in the assay on K-562 leukemia. Further, the TGI is 94 µM in the assay on DU-145 prostate, more than 100 µM with OVCAR-4 ovarian, 28.9 µM in the assay on BT-549 breast and more than 100 µM in the assay with UO-31 renal.
On to `O=C1c2cc3c(cc2NC(c2ccccc2F)C1O)OCO3` (centres undefined), for which the TGI with HS 578T breast was 48.2 µM; in the assay on PC-3 prostate it was more than 100 µM; in the assay on SW-620 colon, more than 100 µM; with RXF 393 renal it was more than 64.9 µM; in the assay on SF-295 CNS it was 43.6 µM; with K-562 leukemia, more than 100 µM. Also, the TGI in the assay on DU-145 prostate was more than 100 µM; with OVCAR-4 ovarian, more than 84.9 µM; in the assay on BT-549 breast, more than 100 µM; with UO-31 renal, more than 75.8 µM.
In the case of `Nc1nc(N)c2nc(CN(C=O)c3ccc(C(=O)O)cc3)cnc2n1`, the TGI in the assay on HS 578T breast, with PC-3 prostate, with SW-620 colon, in the assay with RXF 393 renal, with SF-295 CNS and in the assay with K-562 leukemia was more than 100 µM each time. Besides, the TGI in the assay on DU-145 prostate is more than 100 µM; in the assay with OVCAR-4 ovarian, more than 100 µM; in the assay on BT-549 breast it was more than 94.7 µM; in the assay with UO-31 renal, more than 100 µM.
For `O=c1c(-c2nc3ccccc3c3ccccc3c2=O)nc2ccccc2c2ccccc12`, the TGI in the assay on HS 578T breast was more than 100 µM; in the assay on PC-3 prostate it was 89.6 µM; in the assay with SW-620 colon, more than 100 µM; in the assay on RXF 393 renal, 82.9 µM; with SF-295 CNS, more than 100 µM; in the assay on K-562 leukemia it was more than 100 µM. For the same compound, the TGI in the assay with DU-145 prostate, in the assay on OVCAR-4 ovarian, with BT-549 breast and in the assay with UO-31 renal was more than 100 µM each time.
Turning to `O=C(O)CN1C(=O)c2ccc(NC(=O)C(=O)O)cc2S1(=O)=O`, the TGI in the assay with HS 578T breast, with PC-3 prostate, with SW-620 colon, in the assay on RXF 393 renal, in the assay with SF-295 CNS and in the assay on K-562 leukemia was more than 100 µM in each case. Moreover, the TGI with DU-145 prostate, in the assay on OVCAR-4 ovarian, in the assay on BT-549 breast and with UO-31 renal was more than 100 µM throughout.
